Tested on: HCV 1b-Con1 replicon
Assay: HCV 1b-Con1 replicon assay in the presence of 5% FBS
Type: cell-based
Details: Hepatitis C virus

COC(=O)N[C@H](C(=O)N1CCC[C@H]1c1nc2cc([C@H]3CC[C@H](c4ccc5[nH]c([C@@H]6CCCN6C(=O)[C@@H](NC(=O)OC)C(C)C)nc5c4)N3c3cc(F)c(N4CCC(c5cc(F)cc(F)c5)CC4)c(F)c3)ccc2[nH]1)C(C)C [Example 3.45, methyl {(2S)-1-[(2S)-2-{5-[(2R,5R)-1-{4-[4-(3,5-difluorophenyl)piperidin-1-yl]-3,5-difluorophenyl}-5-{2-[(2S)-1-{(2S)-2-[(methoxycarbonyl)amino]-3-methylbutanoyl}pyrrolidin-2-yl]-1H-benzimidazol-5-yl}pyrrolidin-2-yl]-1H-benzimidazol-2-yl}pyrrolidin-1-yl]-3-methyl-1-oxobutan-2-yl}carbamate]
EC50: < 0.1 nM

COC(=O)N[C@H](C(=O)N1[C@H](c2nc3cc([C@H]4CC[C@H](c5ccc6[nH]c([C@@H]7C[C@@H]8CCC[C@@H]8N7C(=O)[C@@H](NC(=O)OC)C7CCOCC7)nc6c5)N4c4cc(F)c(N5CCCCC5)c(F)c4)ccc3[nH]2)C[C@@H]2CCC[C@@H]21)C1CCOCC1 [Example 3.32, dimethyl ({(2R,5R)-1-[3,5-difluoro-4-(piperidin-1-yl)phenyl]pyrrolidine-2,5-diyl}bis{1H-benzimidazole-5,2-diyl(2S,3aS,6aS)hexahydrocyclopenta[b]pyrrole-2,1(2H)-diyl[(1S)-2-oxo-1-(tetrahydro-2H-pyran-4-yl)ethane-2,1-diyl]})biscarbamate]
EC50: < 0.1 nM

COC(=O)N[C@H](C(=O)N1CCC[C@H]1c1nc2cc([C@H]3CC[C@H](c4ccc5[nH]c([C@@H]6CCCN6C(=O)[C@@H](NC(=O)OC)C6CCOCC6)nc5c4)N3c3cc(F)c(N4CCC(c5ccccc5)CC4)c(F)c3)ccc2[nH]1)C1CCOCC1 [Example 3.23, dimethyl ({(2R,5R)-1-[3,5-difluoro-4-(4-phenylpiperidin-1-yl)phenyl]pyrrolidine-2,5-diyl}bis{1H-benzimidazole-5,2-diyl(2S)pyrrolidine-2,1-diyl [(1S)-2-oxo-1-(tetrahydro-2H-pyran-4-yl)ethane-2,1-diyl]})biscarbamate]
EC50: < 0.1 nM

COC(=O)N[C@H](C(=O)N1CCC[C@H]1c1nc2cc([C@H]3CC[C@H](c4ccc5[nH]c([C@@H]6CCCN6C(=O)[C@@H](NC(=O)OC)C(C)C)nc5c4)N3c3cc(F)c(N4C[C@H]5CC[C@H]5C4)c(F)c3)ccc2[nH]1)C(C)C [Example 1.8, methyl {(2S)-1-[(2S)-2-{5-[(2R,5R)-1-{4-[(1R,5S)-3-azabicyclo[3.2.0]hept-3-yl]-3,5-difluorophenyl}-5-{2-[(2S)-1-{(2S)-2-[(methoxycarbonyl)amino]-3-methylbutanoyl}pyrrolidin-2-yl]-1H-benzimidazol-5-yl}pyrrolidin-2-yl]-1H-benzimidazol-2-yl}pyrrolidin-1-yl]-3-methyl-1-oxobutan-2-yl}carbamate]
EC50: < 0.1 nM

COC(=O)N[C@H](C(=O)N1CCC[C@H]1c1nc2cc([C@H]3CC[C@H](c4ccc5[nH]c([C@@H]6CCCN6C(=O)[C@@H](NC(=O)OC)C(C)C)nc5c4)N3c3cc(F)c(N4Cc5ccccc5C4)c(F)c3)ccc2[nH]1)C(C)C [Example 5.13, methyl {(2S)-1-[(2S)-2-{5-[(2R,5R)-1-[4-(1,3-dihydro-2H-isoindol-2-yl)-3,5-difluorophenyl]-5-{2-[(2S)-1-{(2S)-2-[(methoxycarbonyl)amino]-3-methylbutanoyl}pyrrolidin-2-yl]-1H-benzimidazol-5-yl}pyrrolidin-2-yl]-1H-benzimidazol-2-yl}pyrrolidin-1-yl]-3-methyl-1-oxobutan-2-yl}carbamate]
EC50: < 0.1 nM

Reference: patent publication US20120220562A1, “Anti-Viral Compounds” (ABBOTT LABAORATORIES, priority 2011, published 2012)
